Laboratory results reported in patent publication US5858751A, “Compositions and methods for producing sialyltransferases” (The Regents of the University of California, priority 1995, dated 1999).

What was measured:
ST3O = target: T1, ST3O (Sus scrofa, UniProt Q02745); assay: Acceptor specificity of ST3O in COS-1 media
T1 sequence (Q02745 28-343 limits assumed): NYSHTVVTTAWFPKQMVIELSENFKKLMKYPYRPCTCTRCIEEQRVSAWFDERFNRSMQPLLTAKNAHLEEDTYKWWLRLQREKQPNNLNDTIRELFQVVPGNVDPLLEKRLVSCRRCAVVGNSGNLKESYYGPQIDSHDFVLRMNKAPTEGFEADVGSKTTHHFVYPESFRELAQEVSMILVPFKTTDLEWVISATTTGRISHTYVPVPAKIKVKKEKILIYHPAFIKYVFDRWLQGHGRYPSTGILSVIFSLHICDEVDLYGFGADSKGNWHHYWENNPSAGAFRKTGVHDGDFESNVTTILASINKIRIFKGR

ST3 = target: T2, ST3 (Homo sapiens, UniProt Q11206); assay: Acceptor specificity of soluble ST3 (AZ3) in COS-1 media; conditions: for sialic acid incorporation by ST3 enzyme: data not shown
T2 sequence (Q11206 1-332 isoform Q11206-2): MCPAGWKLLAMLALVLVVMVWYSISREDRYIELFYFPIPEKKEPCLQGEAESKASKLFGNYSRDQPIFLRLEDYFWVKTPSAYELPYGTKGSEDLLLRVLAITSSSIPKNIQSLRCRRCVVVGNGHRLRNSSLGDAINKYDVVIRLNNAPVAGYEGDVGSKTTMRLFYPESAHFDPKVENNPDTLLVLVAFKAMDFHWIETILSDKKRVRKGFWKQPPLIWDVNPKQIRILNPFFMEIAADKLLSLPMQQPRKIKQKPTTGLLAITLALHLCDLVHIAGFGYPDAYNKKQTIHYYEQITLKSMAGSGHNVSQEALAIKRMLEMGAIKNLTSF

human ST3O = target: T3, human ST3O (Homo sapiens, UniProt Q11201); assay: Acceptor specificity of soluble human ST3O; type: biochemical; conditions: acceptor 0.2 mM
T3 construct: lacked the first 44 amino acids of the open reading frame; made in house; host or cells: COS-1 cells (transient, culture medium)
T3 sequence (Q11201 45-340): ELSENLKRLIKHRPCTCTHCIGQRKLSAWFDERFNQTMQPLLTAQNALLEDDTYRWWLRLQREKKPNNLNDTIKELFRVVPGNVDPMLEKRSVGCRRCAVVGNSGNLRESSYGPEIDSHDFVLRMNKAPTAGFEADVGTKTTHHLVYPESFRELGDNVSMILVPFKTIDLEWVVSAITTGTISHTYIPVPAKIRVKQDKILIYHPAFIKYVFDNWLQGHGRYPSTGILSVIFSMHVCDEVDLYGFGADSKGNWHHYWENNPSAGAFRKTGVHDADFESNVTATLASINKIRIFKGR

porcine ST3O = target: T4, porcine ST3O (Sus scrofa, UniProt Q02745); assay: Acceptor specificity of recombinant porcine ST3O; type: biochemical; conditions: acceptor 0.2 mM
T4 sequence (Q02745 28-343 limits assumed): T1 sequence (Q02745 28-343 limits assumed)

ST3N = assay: Acceptor specificity of ST3N in COS-1 media
α2,3-N sialyltransferase = target: T5, α2,3-N sialyltransferase (Rattus norvegicus, UniProt Q02734); assay: Acceptor use by soluble α2,3-N sialyltransferase secreted from COS-1 cells (pBD122); type: biochemical; conditions: concentrated COS-1 media
T5 construct: made in house; host or cells: COS-1 cells (transient, culture medium)
T5 sequence (Q02734 29-374 limits assumed): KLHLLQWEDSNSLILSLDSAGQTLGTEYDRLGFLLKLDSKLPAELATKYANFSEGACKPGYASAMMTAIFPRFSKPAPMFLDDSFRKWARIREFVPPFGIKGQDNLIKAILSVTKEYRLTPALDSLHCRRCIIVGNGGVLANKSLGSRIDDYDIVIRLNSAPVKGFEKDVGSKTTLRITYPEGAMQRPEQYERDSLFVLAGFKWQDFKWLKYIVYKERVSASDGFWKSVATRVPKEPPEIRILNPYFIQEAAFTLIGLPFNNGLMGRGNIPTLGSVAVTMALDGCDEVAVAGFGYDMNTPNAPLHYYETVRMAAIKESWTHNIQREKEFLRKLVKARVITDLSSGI

rat ST3N = assay: Acceptor specificity of soluble rat ST3N fusion protein; conditions: acceptor 0.2 mM; relative to LNT
human ST3N = target: T6, human ST3N (Homo sapiens, UniProt Q11203); assay: Acceptor specificity of soluble human ST3N fusion protein; conditions: acceptor 0.2 mM; relative to LNT
T6 sequence (Q11203 62-375): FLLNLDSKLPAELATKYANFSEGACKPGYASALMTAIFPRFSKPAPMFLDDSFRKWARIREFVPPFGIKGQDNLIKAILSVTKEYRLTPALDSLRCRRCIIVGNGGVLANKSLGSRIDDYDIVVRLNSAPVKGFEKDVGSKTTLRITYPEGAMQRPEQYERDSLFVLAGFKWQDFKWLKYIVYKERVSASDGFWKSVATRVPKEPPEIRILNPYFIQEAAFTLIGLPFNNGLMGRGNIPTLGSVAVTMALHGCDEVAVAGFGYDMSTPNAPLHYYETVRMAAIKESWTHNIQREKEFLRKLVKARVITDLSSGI

Compound: CC(=O)N[C@H]1C(O)O[C@H](CO)[C@@H](O[C@@H]2O[C@H](CO)[C@H](O)[C@H](O)[C@H]2O)[C@@H]1O (stereo partly drawn) [Galβ1,4GlcNAc]
- Relative rate (%) ST3O (ST3O; acceptor 0.2 mM): 0%
- Relative rate (%) ST3O (ST3O; acceptor 2.0 mM): 0.9%
- Relative rate (%) ST3 (ST3; acceptor 0.2 mM): 4%
- Relative rate (%) ST3 (ST3; acceptor 2.0 mM): 23%
- Relative Activity (%) Human (human ST3O): 0%
- Relative Activity (%) Porcine (porcine ST3O): 0%

Compound: CC(=O)N[C@H]1[C@H](O[C@H]2[C@@H](O)[C@@H](CO)O[C@@H](O[C@H]3[C@H](O)[C@@H](O)C(O)O[C@@H]3CO)[C@@H]2O)O[C@H](CO)[C@@H](O[C@@H]2O[C@H](CO)[C@H](O)[C@H](O)[C@H]2O)[C@@H]1O[C@@H]1O[C@@H](C)[C@@H](O)[C@@H](O)[C@@H]1O (stereo partly drawn) [Galβ1,4(Fucα1,3)GlcNAcβ1,3Galβ1,4Glc]
- Relative rate (%) ST3O (ST3O; acceptor 0.2 mM): 0%
- Relative rate (%) ST3O (ST3O; acceptor 2.0 mM): 0%
- Relative rate (%) ST3 (ST3; acceptor 0.2 mM): 0.1%
- Relative rate (%) ST3 (ST3; acceptor 2.0 mM): 1%
- Relative rate (%) ST3N (ST3N; acceptor 0.2 mM): 0%
- Relative rate (%) ST3N (ST3N; acceptor 2.0 mM): 0%

Compound: NeuAcα2,3Galβ1,4Glcβ1-Cer [GM3]
- Relative rate (%) ST3O (ST3O; acceptor 0.2 mM): 0.1%
- Relative rate (%) ST3 (ST3; acceptor 0.2 mM): 0%
- Relative rate (%) ST3N (ST3N; acceptor 0.2 mM): 0%

Compound: CC(=O)N[C@H]1C(O)O[C@H](CO)[C@@H](O)[C@@H]1O[C@@H]1O[C@H](CO)[C@H](O)[C@H](O)[C@H]1O (stereo partly drawn) [Galβ1,3GlcNAc]
- Relative rate (%) ST3O (ST3O; acceptor 0.2 mM): 2%
- Relative rate (%) ST3 (ST3; acceptor 0.2 mM): 0%

Compound: intact fetuin: glycoprotein examined as acceptor
- sialic acid incorporation by ST3 enzyme (ST3): not any significant amount of sialic acid incorporated

Compound: CC(=O)N[C@H]1[C@H](O[C@H]2[C@@H](O)[C@@H](CO)O[C@@H](O[C@H]3[C@H](O)[C@@H](O)C(O)O[C@@H]3CO)[C@@H]2O)O[C@H](CO)[C@@H](O[C@@H]2O[C@@H](C)[C@@H](O)[C@@H](O)[C@@H]2O)[C@@H]1O[C@@H]1O[C@H](CO)[C@H](O)[C@H](O)[C@H]1O (stereo partly drawn) [Galβ1,3(Fucα1,4)GlcNAcβ1,3Galβ1,4Glc]
- Relative rate (%) ST3O (ST3O; acceptor 0.2 mM): 0%
- Relative rate (%) ST3O (ST3O; acceptor 2.0 mM): 0%
- Relative rate (%) ST3 (ST3; acceptor 2.0 mM): 0%
- Relative rate (%) ST3N (ST3N; acceptor 0.2 mM): 0%
- Relative rate (%) ST3N (ST3N; acceptor 2.0 mM): 0%

Compound: Galβ1,4Glcβ1-Cer [LacCer]
- Relative rate (%) ST3O (ST3O; acceptor 0.2 mM): 0.1%
- Relative rate (%) ST3 (ST3; acceptor 0.2 mM): 4%
- Relative rate (%) ST3N (ST3N; acceptor 0.2 mM): 0%

Compound: Asialo-α1 -acid glycoprotein: glycoprotein acceptor (Galβ1,4GlcNAc-R)
- Relative rate (%) ST3O (ST3O; acceptor 0.2 mM): 0%
- use as acceptor by secreted enzyme (α2,3-N sialyltransferase): capable of sialylating
- Relative rate (%) ST3 (ST3; acceptor 0.2 mM): 51%

Compound: Galβ1,3GalNAcβ1,4(NeuAcα2-3)Galβ1,4Glcβ1-Cer [GM1]
- Relative rate (%) ST3O (ST3O; acceptor 0.2 mM): 47%
- Relative rate (%) ST3 (ST3; acceptor 0.2 mM): 27%
- Relative Activity (%) Human (human ST3O): 41%
- Relative rate (%) ST3N (ST3N; acceptor 0.2 mM): 0%
- Relative Activity (%) Porcine (porcine ST3O): 44%

Compound: GalNAcβ1,4Galβ1,4Glcβ1-Cer [Asialo-GM2]
- Relative rate (%) ST3O (ST3O; acceptor 0.2 mM): 0.5%
- Relative rate (%) ST3 (ST3; acceptor 0.2 mM): 2%
- Relative rate (%) ST3N (ST3N; acceptor 0.2 mM): 0%

Compound: CC(=O)N[C@H]1[C@H](O[C@H]2[C@@H](O)[C@@H](CO)O[C@@H](O[C@H]3[C@H](O)[C@@H](O)C(O)O[C@@H]3CO)[C@@H]2O)O[C@H](CO)[C@@H](O[C@@H]2O[C@H](CO)[C@H](O)[C@H](O)[C@H]2O)[C@@H]1O (stereo partly drawn) [LNnT, Galβ1,4GlcNAcβ1,3Galβ1,4Glc]
- Relative rate (%) ST3O (ST3O; acceptor 0.2 mM): 0%
- Relative rate (%) ST3O (ST3O; acceptor 2.0 mM): 0.5%
- Relative activity (%) Rat (rat ST3N): 4%
- Relative Activity (%) Human (human ST3N): 5%
- Relative rate (%) ST3 (ST3; acceptor 0.2 mM): 24%
- Relative rate (%) ST3 (ST3; acceptor 2.0 mM): 49%
- Relative rate (%) ST3N (ST3N; acceptor 0.2 mM): 4%
- Relative rate (%) ST3N (ST3N; acceptor 2.0 mM): 18%

Compound: GalNAcβ1,4(NeuAcα2-3)Galβ1,4Glcβ1-Cer [GM2]
- Relative rate (%) ST3O (ST3O; acceptor 0.2 mM): 0.3%
- Relative rate (%) ST3N (ST3N; acceptor 0.2 mM): 0%

Compound: Asialofetuin: glycoprotein acceptor (Galβ1,3GalNAc-Thr/Ser and Galβ1,4GlcNAc-R)
- Relative rate (%) ST3O (ST3O; acceptor 0.2 mM): 26%
- Relative rate (%) ST3 (ST3; acceptor 0.2 mM): 92%

Compound: CC(=O)N[C@H]1C(O)O[C@H](CO)[C@H](O)[C@@H]1O[C@@H]1O[C@H](CO)[C@H](O)[C@H](O)[C@H]1O (stereo partly drawn) [Galβ1,3GalNAc]
- Relative rate (%) ST3O (ST3O; acceptor 0.2 mM): 100%
- Relative rate (%) ST3O (ST3O; acceptor 2.0 mM): 100%
- Relative rate (%) ST3 (ST3; acceptor 0.2 mM): 100%
- Relative rate (%) ST3 (ST3; acceptor 2.0 mM): 100%
- Relative Activity (%) Human (human ST3O): 100%
- Relative Activity (%) Porcine (porcine ST3O): 100%

Compound: Galβ1,3GalNAcβ1,4Galβ1,4Glcβ,1-Cer [Asialo-GM1]
- Relative rate (%) ST3O (ST3O; acceptor 0.2 mM): 88%
- Relative rate (%) ST3 (ST3; acceptor 0.2 mM): 64%
- Relative Activity (%) Human (human ST3O): 84%
- Relative rate (%) ST3N (ST3N; acceptor 0.2 mM): 8%
- Relative Activity (%) Porcine (porcine ST3O): 85%

Compound: .varies.1 -acid glycoprotein: intact glycoprotein examined as acceptor
- sialic acid incorporation by ST3 enzyme (ST3): not any significant amount of sialic acid incorporated

Compound: CC(=O)N[C@H]1[C@H](O[C@H]2[C@@H](O)[C@@H](CO)O[C@@H](O[C@H]3[C@H](O)[C@@H](O)C(O)O[C@@H]3CO)[C@@H]2O)O[C@H](CO)[C@@H](O)[C@@H]1O[C@@H]1O[C@H](CO)[C@H](O)[C@H](O)[C@H]1O (stereo partly drawn) [LNT, lacto-N-tetrose]
- Relative rate (%) ST3O (ST3O; acceptor 0.2 mM): 0.5%
- Relative rate (%) ST3O (ST3O; acceptor 2.0 mM): 3%
- Relative activity (%) Rat (rat ST3N): 100%
- Relative Activity (%) Human (human ST3N): 100%
- Relative rate (%) ST3 (ST3; acceptor 0.2 mM): 0%
- Relative rate (%) ST3 (ST3; acceptor 2.0 mM): 2.3%
- Relative rate (%) ST3N (ST3N; acceptor 0.2 mM): 100%
- Relative rate (%) ST3N (ST3N; acceptor 2.0 mM): 100%
